In patent US8481597B2, “Use of (-) (3-trihalomethylphenoxy) (4-halophenyl) acetic acid derivatives for treatment of insulin resistance, type 2 diabetes, hyperlipidemia and hyperuricemia” (Metabolex, Inc., priority 1999, dated 2013):
Entries after “also recorded” stand apart in the source; their conditions may differ.

Key:
[1] = tested on: Zucker diabetic fatty (ZDF) rats; test: Lipid lowering in Zucker Diabetic Fatty rats (Example 11); type: in vivo; conditions: for plasma cholesterol, in words: Experiment I, 13 days, racemate 50 mg/kg/day, enantiomers 25 mg/kg/day
Description: Male Zucker diabetic fatty (ZDF) rats were obtained from GMI Laboratories (Indianapolis, Ind.) at 9 weeks of age. Vehicle or enantiomers of halofenate administered by oral gavage on a daily basis starting at 74 days of age. Initial blood samples were obtained for analysis one day before treatment and at the indicated times in the treatment protocol. Blood was analyzed for plasma triglyceride and cholesterol by standard techniques.

Zucker fa/fa rats [2] = test: Oral glucose challenge in Zucker fatty rats (Example 10); type: in vivo; conditions: racemate 100 mg/kg, enantiomers 50 and 100 mg/kg
Description: (§1) Prior to treatment, rats were assigned to 6 groups based on body weight. Each treatment group consisted of 8 rats. […] The gavage volume was 10 ml/kg. All rats received an oral glucose challenge (1.9 g/kg) 5.5 hours after the treatment and 4 hours after withdrawal of the food. Blood samples were taken at 0, 15, 30, 60, 90, 120, and 180 minutes following the glucose challenge for plasma glucose measurement. […] On day 5, rats received the intravenous insulin (0.75 U/kg) 5.5 hours after the last dose and 4 hours after withdrawal of the food. Blood samples were taken at 3, 6, 9, 12, 15 and 18 minutes following the insulin injection for plasma glucose measurement.

C57BL/6J ob/ob mice [3] = test: Time course of glucose-lowering after a single oral dose in diabetic ob/ob mice (Example 8); type: in vivo; conditions: single oral dose 250 mg/kg; for plasma glucose at 24 hours: vehicle 408±16.2
ZDF rats = test: Plasma glucose in ZDF rats, (−) halofenate vs (+) halofenate (Example 13); type: in vivo; conditions: 50 mg/kg oral once a day for 3 days
Description: Male 8-9 week old ZDF rats were purchased from Genetic Models, Inc. (Indianapolis, Ind.). […] Rats that had 4-hour fasting plasma glucose levels between 200 and 500 mg/dL were used. […] The gavage volume was 5 ml/kg. Blood samples were taken at 5 hours post dose on day 2 and 3.

[4] = tested on: oxonic acid induced hyperuricemic rats; test: Plasma uric acid in oxonic acid induced hyperuricemic rats (Example 17); type: in vivo, SD rats; conditions: oral 50 mg/kg for 3 days, 100 mg/kg on the 4th day; blood 6 hours post gavage on day 4
Text: Male SD rats, weight 275-300 g were purchased from Charles River. […] To establish a hyperuricemic state, animals were put on a diet containing 2.5% (w/w) of oxonic acid (Sigma Chemical Co, St. Louis, Mo., USA) throughout the experiment. Oxonic acid elevates plasma uric acid by inhibiting uricase. Rats were screened for plasma uric acid levels 3 days after they were placed on the diet, and those that had extreme plasma uric acid levels were excluded. Rats were assigned to one of three groups and the mean uric acid levels were equivalent in each group. […] Oxonic acid was delivered in a liquid formulation containing 0.9% (w/v) methylcellulose. The gavage and injection volumes were 5 ml/kg. Blood samples were taken at 6 hours post oral gavage on day 4. Plasma uric acid levels were determined colorimetrically using the Infinity Uric Acid Reagent (Sigma Chemical Co, St. Louis, Mo., USA).

Zucker fa/fa rats [5] = test: Short insulin tolerance test in Zucker fatty rats (Example 10); type: in vivo; conditions: 50 mg/kg/day oral for 5 days
Description: as §1

C57BL/6J ob/ob mice [6] = test: Glucose and insulin lowering on daily oral administration in diabetic ob/ob mice (Example 9); type: in vivo; conditions: for plasma glucose relative to control animals, in words / plasma insulin relative to vehicle control, in words: daily oral, racemate 250 mg/kg/day, enantiomers 125 and 250 mg/kg/day
Description: The gavage volume was 10 ml/kg.

cyclooxygenase 1 (COX-1) = target: T1, cyclooxygenase 1 (COX-1) (Homo sapiens, UniProt P23219); test: COX-1 inhibition in human whole blood assay, TXB2 production (Example 19); type: cell-based
T1 construct: was conducted using fresh human blood from healthy donors; endogenous in cells; host or cells: heparinized fresh human whole blood, stimulated with calcium ionophore A23187
T1 sequence (P23219 24-599): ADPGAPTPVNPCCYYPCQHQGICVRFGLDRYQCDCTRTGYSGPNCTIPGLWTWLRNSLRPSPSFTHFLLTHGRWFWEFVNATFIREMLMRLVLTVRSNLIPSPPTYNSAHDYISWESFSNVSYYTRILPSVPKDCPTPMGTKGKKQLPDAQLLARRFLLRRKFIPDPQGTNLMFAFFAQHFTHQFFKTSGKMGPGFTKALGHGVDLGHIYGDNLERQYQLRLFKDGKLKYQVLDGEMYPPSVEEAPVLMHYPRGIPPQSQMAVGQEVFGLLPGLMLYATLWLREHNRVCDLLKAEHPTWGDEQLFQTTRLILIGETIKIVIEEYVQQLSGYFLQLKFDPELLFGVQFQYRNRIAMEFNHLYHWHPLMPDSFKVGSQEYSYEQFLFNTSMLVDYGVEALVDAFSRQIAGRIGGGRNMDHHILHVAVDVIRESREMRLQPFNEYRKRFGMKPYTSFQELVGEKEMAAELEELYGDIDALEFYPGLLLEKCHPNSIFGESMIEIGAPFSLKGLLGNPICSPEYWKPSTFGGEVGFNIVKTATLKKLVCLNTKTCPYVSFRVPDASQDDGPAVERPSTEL
Description: An assay for cyclooxygenase 1 (COX-1) inhibition by the compounds of the present invention was conducted using fresh human blood from healthy donors. […] The enzyme was activated by the commercially available calcium ionophore A23187.
This bioassay is based on the production of thromboxane B2 (TXB2) after COX-1 activation. When activated, COX-1 generates prostaglandin H2 which is then converted to thromboxane A2 (TXA2) by thromboxane synthase and then finally to thromboxane B2 by non-enzymatic […]. In addition, PGE2 levels were measured to exclude inhibition of thromboxane synthase. This assay allows discrimination between COX-1 and thromboxane synthase inhibition.
TXB2 and PGE2 were measured by commercially available immunoassay kits purchased from Assay Designs, Inc. (Ann Arbor, Mich.). All other chemicals were from Sigma except as noted. […] Immediately before use, all compounds were diluted 1:10 in RPMI-1640 medium (Gibco BRL, 11875-093) to make a 10× concentrated stock solution. The 10×RPMI-1640 stock solutions of the calcium ionophore were prepared in an identical manner. […] COX-1 was then activated by adding 25 microliters of the 10× stock solution of 25 micromolar calcium ionophore. The plates were shaken for 10 minutes at room temperature and then incubated at 37° C. for an additional 30 minutes. After these incubation times, the plates were centrifuged at 2,000 g for 5 minutes. Two microliters of plasma were taken from each reaction for the measurement of TXB2 using an enzyme immunoassay kit from Assay Designs, Inc. The PGE2 level in the same reaction was measured using a PGE2 enzyme immunoassay kit from Assay Designs, Inc.
The results of the assay are presented as the percent inhibition of COX-1 activity.

[7] = cited from earlier work
[8] = Experiment II, 37.5 mg/kg/day (High dose)

For `CC(=O)NCCOC(=O)C(Oc1cccc(C(F)(F)F)c1)c1ccc(Cl)cc1` (single isomer, unassigned; (+)) [(+) halofenate, (+) 2-Acetamidoethyl 4-Chlorophenyl-(3-trifluoromethylphenoxy)-acetate, reference compound], the “plasma cholesterol, in words” value [1] was “remained relatively constant”, the “days of treatment with significantly lower plasma cholesterol vs control” value [1, 8] was 7 days and the “plasma triglyceride, in words” value [1, 8] was “significant lowering of plasma triglyceride”. The “incremental glucose area under the curve (AUC) relative to vehicle control, in words” value (Zucker fa/fa rats [2]) was “not statistically significant”, the “earliest time of plasma glucose reduction / significant activity” value (C57BL/6J ob/ob mice [3]) was 4.5 h and the “time of peak glucose-lowering activity” value (C57BL/6J ob/ob mice [3]) was 7.5 h. The “plasma glucose at 24 hours” value (C57BL/6J ob/ob mice [3]) was 306 ± 28.5 mg/dL, the “plasma glucose concentrations compared to vehicle-treated animals, in words” value (ZDF rats) was “failed to reduce plasma glucose concentrations” and the “plasma uric acid levels, in words” value [4] was “lowered plasma uric acid levels, but it was not statistically significant”. For the same molecule, the “insulin sensitivity (slope of decline in glucose after i.v. insulin), in words” value (Zucker fa/fa rats [5]) was “small effect on insulin sensitivity that was not significantly different from the vehicle-treated control”, the “overnight fasting plasma insulin after 5 days treatment, in words” value (C57BL/6J ob/ob mice [6]; 125 mg/kg/day oral, ob/ob mice) was “did not lower plasma insulin” and the “overnight fasting plasma insulin after 5 days treatment, in words” value (C57BL/6J ob/ob mice [6]; 250 mg/kg/day oral, ob/ob mice) was “resulted in a decrease in plasma insulin”. The “plasma glucose following an overnight fast after 5 days treatment” value (C57BL/6J ob/ob mice [6]; 250 mg/kg/day oral, ob/ob mice, control 185.4±12.3) was 127.2 ± 9.7 mg/dL, the “plasma glucose relative to control animals, in words” value (C57BL/6J ob/ob mice [6]) was “Significant decreases in glucose levels” and the “plasma insulin relative to vehicle control, in words” value (C57BL/6J ob/ob mice [6]) was “insulins were lower”.
For `CC(=O)NCCOC(=O)C(Oc1cccc(C(F)(F)F)c1)c1ccc(Cl)cc1` (racemic) [racemic halofenate, 2-acetamidoethyl (4-chlorophenyl) (3-trifluoromethylphenoxy)acetate, reference compound], the “plasma cholesterol, in words” value [1] was “plasma cholesterol declined with treatment”, the IC50 (cyclooxygenase 1 (COX-1)) was about 1000 µM and the “incremental glucose area under the curve (AUC) relative to vehicle control, in words” value (Zucker fa/fa rats [2]) was “not statistically significant”. The “plasma glucose after oral glucose challenge, in words” value (Zucker fa/fa rats [2]; single oral dose 5.5 hours before challenge) was “The plasma glucose was reduced”, the “time course of glucose-lowering, in words” value (C57BL/6J ob/ob mice [3]) was “significantly reduced plasma glucose concentrations at most of the timepoints” and the “time of peak glucose-lowering activity” value (C57BL/6J ob/ob mice [3]) was 9 h. For the same molecule, the “plasma glucose at 24 hours” value (C57BL/6J ob/ob mice [3]) was 259.3 ± 20.8 mg/dL, the “plasma glucose relative to control animals, in words” value (C57BL/6J ob/ob mice [6]) was “Significant decreases in glucose levels” and the “plasma insulin relative to vehicle control, in words” value (C57BL/6J ob/ob mice [6]) was “insulins were lower”. The “side effects in patients” value ([7]; previous clinical studies (Friedberg et al. 1986)) was “gastrointestinal bleeding from stomach and peptic ulcers; also recorded: increased risk of gastrointestinal side effects such as upper gastrointestinal ulcers and bleeding” and the “effect on glucose in patients with diabetes treated with the drug alone” value ([7]; previous studies from the 1970's) was “minimal effect on glucose”.
